# Measured values: the NIST ThermoML archive (doi:10.1016/j.tca.2005.04.019)
# ± gives the expanded uncertainty stated by the source.
# Tests used:
# [1] = DTA
# [2] = Molar enthalpy of transition or fusion; settings: DSC
SMILES,Triple point temperature ([1]; Crystal 2) [K],Molar enthalpy of transition or fusion ([2]; Crystal 2) [kJ/mol],Triple point temperature ([1]; Crystal 3) [K],Triple point temperature ([1]; Crystal 4) [K],Molar enthalpy of transition or fusion ([2]; Crystal 3) [kJ/mol],Molar enthalpy of transition or fusion ([2]; Crystal 4) [kJ/mol]
CCCCCCCCCC[NH2+]CCCCCCCCCC.O=P([O-])(O)O [N-decyldecan-1-aminium dihydrogen phosphate],354.1 ± 3,61 ± 2,,,,
CCCCCCCCCCCC[NH2+]CCCCCCCCCCCC.[I-] [N-dodecyldodecan-1-aminium iodide],338.1 ± 3,38.5 ± 1,,,,
CCCCCCCC[NH2+]CCCCCCCC.[O-][Cl+3]([O-])([O-])[O-] [N-octyloctan-1-aminium perchlorate],296.1 ± 10,37 ± 2,,,,
CCCCCCCC[NH2+]CCCCCCCC.O=S(=O)([O-])O [dioctylammonium hydrogen sulfate],463.15 ± 3,4.8 ± 3,371.1 ± 3,289.1 ± 3,1.4 ± 0.3,4.1 ± 0.2
CCCCCCCCNCCCCCCCC.Cl [N-octyl-1-octaminium hydrochloride],294.1 ± 3,37 ± 1,,,,
CCCCCCCCCCCC[NH2+]CCCCCCCCCCCC.[O-][Cl+3]([O-])([O-])[O-] [N-dodecyldodecan-1-aminium perchlorate],335.1 ± 3,72 ± 2,,,,
CCCCCCCCCCCCCCCCCC[NH2+]CCCCCCCCCCCCCCCCCC.[I-] [N-octadecyloctadecan-1-aminium iodide],366.15 ± 3,75 ± 3,,,,
CCCCCCCCCCCCCCCCCC[NH2+]CCCCCCCCCCCCCCCCCC.[Cl-] [N-octadecyloctadecan-1-aminium chloride],364.35 ± 3,97 ± 2,,,,
CCCCCCCC[NH2+]CCCCCCCC.[Br-] [N-octyloctan-1-aminium bromide],303.1 ± 5,25 ± 1,,,,
CCCCCCCC[NH2+]CCCCCCCC.O=P([O-])(O)O [N-octyloctan-1-aminium dihydrogen phosphate],333.1 ± 3,,,,,
CCCCCCCCCC[NH2+]CCCCCCCCCC.O=[N+]([O-])[O-] [N-decyldecan-1-aminium nitrate],333.1 ± 3,64 ± 1,,,,
CCCCCCCCCC[NH2+]CCCCCCCCCC.[Cl-] [didecylammonium chloride],321.1 ± 3,40 ± 1,,,,
CCCCCCCC[NH2+]CCCCCCCC.O=[N+]([O-])[O-] [N-octyloctan-1-aminium nitrate],318.1 ± 3,53.5 ± 1,,,,
CCCCCCCCCCCCCCCCCC[NH2+]CCCCCCCCCCCCCCCCCC.O=S(=O)([O-])O [N-octadecyloctadecan-1-aminium hydrogen sulfate],355.1 ± 3,,343.1 ± 3,,109 ± 3,
CCCCCCCCCC[NH2+]CCCCCCCCCC.[Br-] [N-decyldecan-1-aminium bromide],330.1 ± 3,38 ± 2,,,,
CCCCCCCCCCCC[NH2+]CCCCCCCCCCCC.[Br-] [N-dodecyldodecan-1-aminium bromide],346.1 ± 3,49 ± 1.1,,,,
CCCCCCCCCCCC[NH2+]CCCCCCCCCCCC.O=[N+]([O-])[O-] [N-dodecyldodecan-1-aminium nitrate],339.1 ± 3,77 ± 1,,,,
CCCCCCCCCCCC[NH2+]CCCCCCCCCCCC.O=S(=O)([O-])O [N-dodecyldodecan-1-aminium hydrogen sulfate],373.1 ± 3,,347.1 ± 3,,30 ± 2,
CCCCCCCCCCCCCCCCCC[NH2+]CCCCCCCCCCCCCCCCCC.[O-][Cl+3]([O-])([O-])[O-] [N-octadecyloctadecan-1-aminium perchlorate],361.25 ± 3,115 ± 1,,,,
CCCCCCCC[NH2+]CCCCCCCC.[I-] [N-octyloctan-1-aminium iodide],271.1 ± 1,,267.1 ± 1,,21 ± 1,
CCCCCCCCCCCC[NH2+]CCCCCCCCCCCC.O=P([O-])(O)O [N-dodecyldodecan-1-aminium dihydrogen phosphate],363.1 ± 3,83 ± 3,328.1 ± 3,,,
CCCCCCCCCCCC[NH2+]CCCCCCCCCCCC.[Cl-] [N-dodecyldodecan-1-aminium chloride],338.1 ± 3,48 ± 1,,,,
CCCCCCCCCCCCCCCCCC[NH2+]CCCCCCCCCCCCCCCCCC.O=[N+]([O-])[O-] [N-octadecyloctadecan-1-aminium nitrate],366.65 ± 3,109 ± 3,,,,
CCCCCCCCCCCCCCCCCC[NH2+]CCCCCCCCCCCCCCCCCC.[Br-] [N-octadecyloctadecan-1-aminium bromide],371.15 ± 3,81 ± 2,,,,
